In PubChem BioAssay AID308 (DTP/NCI, 2004):
Several values for one entry are separate records, joined by “and”; a condition that tells them apart may be missing. Equal values may be shown once. Toxic doses and inconclusive results are not listed. How the source made its calls: active means survival T/C of 150% or more; inactive means T/C below 125% in these data.

Test system: BDF1 mice, L1210 6-MP/6-TG resistant leukemia ip, survival T/C
Assay: NCI In Vivo Anticancer Drug Screen. Data for tumor model L1210 Leukemia resistant to 6-MP and 6-Thioguanine; NSC 755, NSC 752 (intraperitoneal) in B6D2F1 (BDF1) mice
Settings: endpoint: mean survival time, higher = longer survival
Description: The antitumor activity of compounds was measured in mice bearing transplantable tumors. Survival or tumor size were measured and the results are expressed as the measurement made in the treated group (T) divided by the measurement made in the vehicle treated control group (C). The tumor model used in this assay is L1210 Leukemia resistant to 6-MP and 6-Thioguanine; NSC 755, NSC 752 (intraperitoneal) in B6D2F1 (BDF1) mice

[1] = dose: 25.0 mg/kg/injection, schedule: Q01DX Z (ip), vehicle: carboxymethylcellulose (CMC)
[2] = dose: 100.0 mg/kg/injection, schedule: Q01DX Z (ip), vehicle: carboxymethylcellulose (CMC)
[3] = dose: 10.0 mg/kg/injection, schedule: Q01DX Z (ip), vehicle: carboxymethylcellulose (CMC)
[4] = dose: 20.0 mg/kg/injection, schedule: Q01DX Z (ip), vehicle: carboxymethylcellulose (CMC)
[5] = dose: 12.0 mg/kg/injection, schedule: Q01DX Z (ip), vehicle: carboxymethylcellulose (CMC)

Measured: T/C

Clc1ccccc1CSc1ncnc2nc[nH]c12
inactive: dose: 62.5 mg/kg/injection, schedule: Q01DX Z (ip), vehicle: other 96 % of control | dose: 125.0 mg/kg/injection, schedule: Q01DX Z (ip), vehicle: other 92 % of control | dose: 250.0 mg/kg/injection, schedule: Q01DX Z (ip), vehicle: other 86 % of control

COCCCNS(=O)(=O)c1ncnc2nc[nH]c12
inactive: [1] 92 % of control | [2] 90 % of control

O=C(O)CCCc1ccc(N(CCCl)CCCl)cc1
inactive: dose: 5.0 mg/kg/injection, schedule: Q01DX Z (ip), vehicle: carboxymethylcellulose (CMC) 117 % of control | [3] 114 % of control | [4] 115 % of control | dose: 30.0 mg/kg/injection, schedule: Q01DX Z (ip), vehicle: carboxymethylcellulose (CMC) 89 % of control

CCOC(=O)Sc1ncnc2nc[nH]c12
inactive: dose: 14.0 mg/kg/injection, schedule: Q01DX Z (ip), vehicle: saline 95 % of control | dose: 28.0 mg/kg/injection, schedule: Q01DX Z (ip), vehicle: saline 95 % of control | dose: 56.0 mg/kg/injection, schedule: Q01DX Z (ip), vehicle: saline 90 % of control

S=c1nc[nH]c2nc[nH]c12
inactive: dose: 3.5 mg/kg/injection, schedule: Q01DX Z (ip), vehicle: carboxymethylcellulose (CMC) 99 % of control | dose: 5.0 mg/kg/injection, schedule: Q01DX015 (ip), vehicle: carboxymethylcellulose (CMC) 93 % of control and 101 % of control | dose: 7.0 mg/kg/injection, schedule: Q01DX Z (ip), vehicle: carboxymethylcellulose (CMC) 100 % of control and 103 % of control and 106 % of control | dose: 8.0 mg/kg/injection, schedule: Q01DX015 (ip), vehicle: carboxymethylcellulose (CMC) 94 % of control and 97 % of control and 103 % of control | dose: 10.0 mg/kg/injection, schedule: Q01DX015 (ip), vehicle: alkali diluted with saline 96 % of control | dose: 12.0 mg/kg/injection, schedule: Q01DX015 (ip), vehicle: carboxymethylcellulose (CMC) 90 % of control and 95 % of control and 96 % of control | [5] 110 % of control | dose: 12.5 mg/kg/injection, schedule: Q01DX Z (ip), vehicle: carboxymethylcellulose (CMC) 95 % of control | dose: 14.0 mg/kg/injection, schedule: Q01DX Z (ip), vehicle: carboxymethylcellulose (CMC) 96 % of control and 98 % of control and 104 % of control | dose: 16.0 mg/kg/injection, schedule: Q01DX015 (ip), vehicle: carboxymethylcellulose (CMC) 95 % of control | dose: 18.0 mg/kg/injection, schedule: Q01DX015 (ip), vehicle: carboxymethylcellulose (CMC) 93 % of control and 100 % of control | dose: 19.0 mg/kg/injection, schedule: Q01DX Z (ip), vehicle: carboxymethylcellulose (CMC) 123 % of control | dose: 20.0 mg/kg/injection, schedule: Q01DX015 (ip), vehicle: alkali diluted with saline 103 % of control | dose: 20.0 mg/kg/injection, schedule: Q01DX015 (ip), vehicle: carboxymethylcellulose (CMC) 96 % of control | [4] 101 % of control | dose: 24.0 mg/kg/injection, schedule: Q01DX015 (ip), vehicle: carboxymethylcellulose (CMC) 93 % of control | [1] 88 % of control | dose: 26.0 mg/kg/injection, schedule: Q01DX001 (ip), vehicle: alkali diluted with saline 97 % of control and 101 % of control | dose: 27.0 mg/kg/injection, schedule: Q01DX015 (ip), vehicle: carboxymethylcellulose (CMC) 96 % of control and 100 % of control | dose: 40.0 mg/kg/injection, schedule: Q01DX001 (ip), vehicle: alkali diluted with saline 96 % of control and 98 % of control (2×) | dose: 40.0 mg/kg/injection, schedule: Q01DX001 (ip), vehicle: carboxymethylcellulose (CMC) 102 % of control and 109 % of control | dose: 40.0 mg/kg/injection, schedule: Q01DX015 (ip), vehicle: alkali diluted with saline 103 % of control | dose: 40.0 mg/kg/injection, schedule: Q01DX015 (ip), vehicle: carboxymethylcellulose (CMC) 92 % of control and 95 % of control | dose: 42.0 mg/kg/injection, schedule: Q01DX Z (ip), vehicle: carboxymethylcellulose (CMC) 103 % of control | dose: 50.0 mg/kg/injection, schedule: Q01DX Z (ip), vehicle: carboxymethylcellulose (CMC) 91 % of control | dose: 56.0 mg/kg/injection, schedule: Q01DX Z (ip), vehicle: carboxymethylcellulose (CMC) 93 % of control and 97 % of control | dose: 59.0 mg/kg/injection, schedule: Q01DX001 (ip), vehicle: carboxymethylcellulose (CMC) 100 % of control | dose: 60.0 mg/kg/injection, schedule: Q01DX001 (ip), vehicle: alkali diluted with saline 96 % of control (2×) and 106 % of control | dose: 60.0 mg/kg/injection, schedule: Q01DX001 (ip), vehicle: carboxymethylcellulose (CMC) 108 % of control | dose: 60.0 mg/kg/injection, schedule: Q01DX010 (ip), vehicle: alkali diluted with saline 94 % of control | dose: 90.0 mg/kg/injection, schedule: Q01DX001 (ip), vehicle: alkali diluted with saline 87 % of control and 97 % of control and 103 % of control | dose: 90.0 mg/kg/injection, schedule: Q01DX001 (ip), vehicle: carboxymethylcellulose (CMC) 99 % of control and 102 % of control | [2] 91 % of control | dose: 135.0 mg/kg/injection, schedule: Q01DX001 (ip), vehicle: alkali diluted with saline 96 % of control and 103 % of control and 105 % of control | dose: 150.0 mg/kg/injection, schedule: Q01DX001 (ip), vehicle: carboxymethylcellulose (CMC) 96 % of control | dose: 202.0 mg/kg/injection, schedule: Q01DX001 (ip), vehicle: alkali diluted with saline 99 % of control and 100 % of control and 102 % of control | dose: 203.0 mg/kg/injection, schedule: Q01DX001 (ip), vehicle: carboxymethylcellulose (CMC) 95 % of control

N[C@@H](Cc1ccc(N(CCCl)CCCl)cc1)C(=O)O
inactive: dose: 4.0 mg/kg/injection, schedule: Q01DX Z (ip), vehicle: carboxymethylcellulose (CMC) 107 % of control | dose: 6.0 mg/kg/injection, schedule: Q01DX Z (ip), vehicle: carboxymethylcellulose (CMC) 122 % of control | dose: 8.0 mg/kg/injection, schedule: Q01DX Z (ip), vehicle: carboxymethylcellulose (CMC) 119 % of control | [5] 122 % of control

CCSc1nc(Cl)cc(Sc2nc(N)nc3nc[nH]c23)n1
inactive: dose: 8.0 mg/kg/injection, schedule: Q01DX Z (ip), vehicle: other 107 % of control | dose: 16.0 mg/kg/injection, schedule: Q01DX Z (ip), vehicle: other 90 % of control

COc1cc([C@@H]2c3cc4c(cc3[C@H](O)[C@H]3COC(=O)[C@@H]23)OCO4)cc(OC)c1OC
inactive: [3] 124 % of control | dose: 40.0 mg/kg/injection, schedule: Q01DX Z (ip), vehicle: carboxymethylcellulose (CMC) 101 % of control

C[C@@H]1C[C@@H]([C@H](O)CC2CC(=O)NC(=O)C2)C(=O)[C@@H](C)C1
inactive: dose: 0.93 mg/kg/injection, schedule: Q01DX Z (ip), vehicle: carboxymethylcellulose (CMC) 101 % of control | dose: 1.87 mg/kg/injection, schedule: Q01DX Z (ip), vehicle: carboxymethylcellulose (CMC) 101 % of control | dose: 3.75 mg/kg/injection, schedule: Q01DX Z (ip), vehicle: carboxymethylcellulose (CMC) 100 % of control | dose: 7.5 mg/kg/injection, schedule: Q01DX Z (ip), vehicle: carboxymethylcellulose (CMC) 101 % of control | dose: 7.5 mg/kg/injection, schedule: Q01DX Z (ip), vehicle: saline 116 % of control | dose: 15.0 mg/kg/injection, schedule: Q01DX Z (ip), vehicle: saline 114 % of control | dose: 30.0 mg/kg/injection, schedule: Q01DX Z (ip), vehicle: saline 112 % of control | dose: 60.0 mg/kg/injection, schedule: Q01DX Z (ip), vehicle: saline 92 % of control
